Entries after “also recorded” stand apart in the source; their conditions may differ. Each block holds one molecule with its values, some of them ahead of it. *1 amine or outer side, *2 acyl side, *3 side chain or, on linkers, in order; H or OH if unused. Where a SMILES comes first, the peptide text is derived from it. Bridges are numbered along the chain shown (N, C = ends). Roman numbers before positions name the chains, in order. [ ]: non-standard residue; d: D form. Actinocin(9to1) = Cc1c2oc3c(C)ccc(C(=O)[*:1])c3nc-2c(C(=O)[*:2])c(N)c1=O; NMeV = CN[C@H](C(=O)O)C(C)C; Sar = CNCC(=O)O
Key:
HO-1 = HO-1 protein expression in cortical neurons (Western blot); settings: cortical neurons pretreated 1 h with CHX or ATD, then 100 μg/ml EGb 761
[1] = system: mouse cortical neuronal cells; assay: Glutamate-induced cytotoxicity in primary neurons (MTT); assay type: cell-based; settings: SnPPIX 5 μM; CHX 10 μM
Description: Mouse primary neurons cultured for 14 d were pre-treated for 6 h with EGb 761 (100 μg/ml). […] Neurons were incubated for an additional 18 h, and the MTT assay was used to estimate the cell survival. Experimental conditions were conducted in quadruplicate and repeated four times with different batches of primary cultures.
(§1) Neuronal survival was assessed and quantified with the MTT colorimetric assay. […] The optical density was determined at 570 nm. Cell viability of the vehicle-treated control group was defined as 100%, and MTT optical density in the treated groups was expressed as a percent of control.

NF-κB = assay type: cell-based, mouse; settings: nrf2−/− MEFs pretreated 1 h with NAC (10 mM) or GSH-MEE (1 mM), then LPS (0.5 μg/ml) or TNF-α (10 ng/ml) 3 h
nrf2−/− and nrf2+/+ mice = assay: LPS induced septic shock mortality, NAC pretreatment; assay type: in vivo; settings: LPS 1.5 mg per mouse
[2] = system: OVA challenged Nrf2−/− mice; assay: Lung histology (H&E) of OVA challenged mice pretreated with NAC; settings: OVA challenged (1st challenge) Nrf2−/− mice, NAC 7 days before challenge
[3] = system: OVA challenged Nrf2−/− mice; assay: BAL fluid inflammatory cell counts in OVA challenged mice pretreated with NAC
caspase-3 = assay: Caspase-3/7 assay in cortical neurons; assay type: cell-based, mouse; settings: for caspase-3 activity: cortical neurons, t-BuOOH 60 μM, NMDA 100 μM, glutamate 300 μM
Nrf2 = settings: cortical neurons; t-BuOOH 60 μM, NMDA 100 μM, glutamate 300 μM; up to 360 minutes
primary cortical neurons [4] = assay: Neuronal viability by MTT assay (t-BuOOH, NMDA, glutamate with or without t-BHQ); settings: 24 hours
[5] = system: mouse cortical neuronal cells; assay: H2O2-induced cytotoxicity in primary neurons (MTT); assay type: cell-based; settings: SnPPIX 5 μM
Description: After 10 d in culture, mouse primary neurons were pre-treated with EGb 761 (10, 50, or 100 μg/ml) for 6 h, and then treated for 18 h with H2O2 (20 μM) or vehicle (control) with or without 5 μM HO inhibitor (SnPPIX, Porphyrin Products, Inc., (Logan, Utah). Cell survival was evaluated by the 3-(4,5-dimethylthiazol-2-yl)-2,5-diphenyl tetrazolium bromide (MTT) colorimetric assay.
as §1

HO-2 = HO-2 protein expression in cortical neurons (Western blot); settings: 8 h
[6] = system: NADPH-cytochrome P450 reductase (CP450R); assay: NADPH-cytochrome P450 reductase protein expression in cortical neurons (Western blot); settings: 8 h
primary cortical neurons [7] = system: primary cortical neurons

SMILES: Cc1c2oc3c(C)ccc(C(=O)N[C@@H]4C(=O)N[C@H](C(C)C)C(=O)N5CCC[C@H]5C(=O)N(C)CC(=O)N(C)[C@@H](C(C)C)C(=O)O[C@@H]4C)c3nc-2c(C(=O)N[C@@H]2C(=O)N[C@H](C(C)C)C(=O)N3CCC[C@H]3C(=O)N(C)CC(=O)N(C)[C@@H](C(C)C)C(=O)O[C@@H]2C)c(N)c1=O [ATD, actinomycin D] (I: T[dV]P[Sar][NMeV] / II: T[dV]P[Sar][NMeV]; ester I:1-I:C, II:1-II:C; linker I:N-II:N via Actinocin(9to1))
- HO-1 induction by EGb 761 in presence of inhibitor (HO-1): completely block

SMILES: C[C@@H]1C[C@@H]([C@H](O)CC2CC(=O)NC(=O)C2)C(=O)[C@@H](C)C1 [CHX, cycloheximide]
- protective effect of EGb 761 against glutamate in presence of inhibitor [1]: prevented the protective effect
- HO-1 induction by EGb 761 in presence of inhibitor (HO-1): completely block

SMILES: CCOC(=O)CNC(=O)[C@H](CS)NC(=O)CC[C@H](N)C(=O)O [GSH-monoethyl ester]
- NF-κB mediated reporter activity elicited by LPS or TNF-α (NF-κB): significantly attenuated

SMILES: CC(=O)N[C@@H](CS)C(=O)O [NAC, N-acetyl L-cysteine]
- LPS induced mortality (% survival) vs vehicle-pretreated mice (nrf2−/− and nrf2+/+ mice; nrf2−/− and nrf2+/+ mice, NAC ip 500 mg/kg daily 4 days, 5 days): improved survival
- mice surviving LPS induced septic shock (nrf2−/− and nrf2+/+ mice; nrf2−/− mice, NAC 500 mg/kg ip daily 4 days, saline-pretreated all died within 56 h): 40%
- protection against LPS induced septic shock (nrf2−/− and nrf2+/+ mice; wild-type mice, NAC 500 mg/kg 4 days): modest protection
- infiltration of inflammatory cells in the peribronchial and perivascular region [2]: marked reduction; also recorded: significant reduction
- other cell types (macrophages, neutrophils, lymphocytes, epithelial cells) in BAL fluid ([3]; 24 h post 1st OVA challenge, NAC treatment): did not have any significant inhibitory effect
- inflammatory cells in the BAL fluid ([3]; Nrf2−/− OVA mice, NAC pretreatment 7 days before 1st OVA challenge): significantly (*) reduced
- total and differential cell counts in saline-challenged mice ([3]; saline-challenged mice treated with NAC vs untreated): did not differ

SMILES: CN[C@H](CC(=O)O)C(=O)O [NMDA]
- caspase-3 activity (caspase-3): induced an increase
- Nrf2 in the cytosolic fraction (Nrf2): no effect
- Nrf2 in the nuclear fraction (Nrf2): no effect
- number of viable neurons vs untreated control (primary cortical neurons [4]; t-BuOOH 60 μM, NMDA 100 μM, glutamate 300 μM): significantly decreased

SMILES: C=Cc1c2[n-]c(c1C)/C=c1\[n-]/c(c(C)c1C=C)=C\c1[n-]c(c(CCC(=O)O)c1C)C=c1[n-]/c(c(C)c1CCC(=O)O)=C\2.[Sn+4] [SnPPIX, Tin Protoporphyrin IX]
- protective effect of EGb 761 against H2O2 in presence of HO inhibitor [5]: blocked the protective effect
- protective effect of EGb 761 against glutamate in presence of inhibitor [1]: prevented the protective effect

SMILES: CC(C)(C)[C@]1(O)CC2OC(=O)CC23C(=O)OC2OC(=O)[C@H](O)C231 (some centres unmarked) [bilobalide]
- HO-2 expression level (HO-2): do not affect
- NADPH-cytochrome P450 reductase (CP450R) protein expression [6]: do not affect

- caspase-3 activity (caspase-3): induced an increase
SMILES: N[C@@H](CCC(=O)O)C(=O)O [glutamate]
- Nrf2 in the cytosolic fraction (Nrf2): no effect
- Nrf2 in the nuclear fraction (Nrf2): no effect

- increase in caspase-3 activity evoked by t-BuOOH, NMDA and glutamate (caspase-3; t-BHQ 20 μM): prevent the increase
SMILES: CC(C)(C)c1cc(O)ccc1O [t-BHQ, tert-butylhydroquinone]
- basal levels of caspase-3 activity (caspase-3; t-BHQ alone): no effect
- neuronal viability, compound alone (primary cortical neurons [7]): no effect
- decrease in viable neurons caused by t-BuOOH, NMDA or glutamate (primary cortical neurons [4]; t-BHQ 20 μM): abolished

SMILES: CC(C)(C)OO [t-BuOOH, test-butyl hydroperoxide]
- caspase-3 activity (caspase-3): induced an increase
- Nrf2 in the cytosolic fraction (Nrf2): decreased to below the basal level after 30 minutes
- Nrf2 in the nuclear fraction (Nrf2): elevated at 30 min

Reference: US20150080462A1, “COMPOSITIONS AND METHODS FOR THE TREATMENT OR PREVENTION OF DISORDERS RELATING TO OXIDATIVE STRESS” (THE JOHNS HOPKINS UNIVERSITY, priority 2005, published 2015)
